Data on 37 compounds can be found in patent publication US7964624B1, “Inhibitors of serine proteases” (priority 2005, dated 2011).

For orientation: pKi means the negative decadic logarithm of the Ki, by convention in mol/L.

pKi: −log10 of the molar value. Bounds are passed on as bounds.

One assay deals with T1, HCV NS3 protease domain (Hepatitis C virus genotype 1b, UniProt Q9WMX2).
T1 construct: The first 181 amino acids of NS3 (residues 1027-1207 of the viral polyprotein); hexa-histidine (C); made in house; host or cells: E. coli BL21/DE3 pLysS
Kind of assay: biochemical. Particulars: Enzyme Assay 1 (HCV NS3 Protease Domain Peptide Cleavage Assay) activity, apparent Ki class.

Assay [1] concerns the target T2, full-length hepatitis C viral protein NS3•4A (Hepatitis C virus genotype 1a, UniProt P27958).
T2 construct: hexa-histidine (N); made in house; host or cells: Sf9 insect cells (baculovirus, pVL1392)
Kind of assay: biochemical. Also on record: species or system HCV sub-type strain 1a. As to conditions: Enzyme Assay 2 (HCV NS3 Peptide Cleavage Assay) activity, apparent Ki class.

Turning to `CCC[C@H](NC(=O)[C@@H]1C[C@]2(CC(c3cccc(Cl)c3)=NO2)CN1C(=O)[C@@H](NC(=O)CC1CCCCC1)C(C)(C)C)C(=O)C(=O)NCc1ccc(-n2cccn2)cc1` [Compound 73], the results for the pKi (at HCV NS3 protease domain; in assay [1]) were less than 6.30 and 6.30 to 7.00, respectively.

On to `CCC[C@H](NC(=O)[C@@H]1C[C@]2(CC(c3cc(Cl)c4c(c3)CCC(C)(C)O4)=NO2)CN1C(=O)[C@@H](NC(=O)CC1CCCCC1)C(C)(C)C)C(=O)C(=O)NC1CC1` [Compound 74], for which the values for the pKi (at HCV NS3 protease domain; in assay [1]) were 6.30 to 7.00 and greater than 7.00, respectively.

Regarding `CCC[C@H](NC(=O)[C@@H]1C[C@]2(CC(c3cccc(Cl)c3)=NO2)CN1C(=O)[C@@H](NC(=O)CC1CCCCC1)C(C)(C)C)C(=O)C(=O)NCc1ccccc1` [Compound 77], the pKi at HCV NS3 protease domain is 6.30 to 7.00; in assay [1], greater than 7.00.

In the case of `CCC[C@H](NC(=O)[C@@H]1C[C@]2(CC(c3cccc(Cl)c3)=NO2)CN1C(=O)[C@@H](NC(=O)CC1CCCCC1)C(C)(C)C)C(=O)C(=O)N1CCC1` [Compound 79], the values for the pKi (at HCV NS3 protease domain; in assay [1]) were 6.30 to 7.00 and greater than 7.00, respectively.

On to `CCC[C@H](NC(=O)[C@@H]1C[C@]2(CC(c3cccc(Cl)c3)=NO2)CN1C(=O)[C@@H](NC(=O)CC1CCCCC1)C(C)(C)C)C(=O)C(=O)Nc1cc(OC)ccc1OC` [Compound 84], for which the pKi (at HCV NS3 protease domain; in assay [1]) was less than 6.30 each time.

With `CC(C)(C)[C@H](NC(=O)CC1CCOCC1)C(=O)N1C[C@@]2(CC(c3cccc(Cl)c3)=NO2)C[C@H]1C(=O)NC(CC1CCC1)C(=O)C(=O)NC1CC1` (some centres unmarked) [Compound 87], the pKi (on HCV NS3 protease domain; in assay [1]) was 6.30 to 7.00 each time.

Turning to `CCC[C@H](NC(=O)[C@@H]1CC2(CC(c3cccc(Cl)c3)=NO2)CN1C(=O)[C@H](Cc1ccc(OC)cc1)NC(C)=O)C(=O)C(=O)NC1CC1` (some centres unmarked) [Compound 88], the negative logarithm of the Ki (pKi) is less than 6.30 on HCV NS3 protease domain and 6.30 to 7.00 in assay [1].

Consider `CCC[C@H](NC(=O)[C@@H]1C[C@]2(CC(c3cccc(Cl)c3)=NO2)CN1C(=O)[C@@H](NC(=O)CC1CCCCC1)C(C)(C)C)C(=O)C(=O)NCC1(c2ccc(OC)cc2)CCOCC1` [Compound 91], for which the pKi (at HCV NS3 protease domain; in assay [1]) was less than 6.30 each time.

Turning to `CCC[C@H](NC(=O)[C@@H]1C[C@]2(CC(c3cccc(Cl)c3)=NO2)CN1C(=O)[C@@H](NC(=O)C1CCCCC1)C(C)(C)C)C(=O)C(=O)NC1CC1` [Compound 93], the results for the negative logarithm of the Ki (pKi) (at HCV NS3 protease domain; in assay [1]) were 6.30 to 7.00 and greater than 7.00, respectively.

As for `CCC[C@H](NC(=O)[C@@H]1C[C@]2(CC(c3cccc(Cl)c3)=NO2)CN1C(=O)[C@@H](NC(=O)CC1CCCCC1)C(C)(C)C)C(=O)C(=O)Nc1ccc(C)c(C#N)c1` [Compound 96], the negative logarithm of the Ki (pKi) on HCV NS3 protease domain is less than 6.30; in assay [1] it was 6.30 to 7.00.

In the case of `CCC[C@H](NC(=O)[C@@H]1C[C@]2(CC(c3cccc(Cl)c3)=NO2)CN1C(=O)[C@H](CC(C)C)NC(C)=O)C(=O)C(=O)NC1CC1` [Compound 98], the figures for the pKi (on HCV NS3 protease domain; in assay [1]) were less than 6.30 and 6.30 to 7.00, respectively.

With `CCC[C@H](NC(=O)[C@@H]1C[C@]2(CC(c3cccc(Cl)c3)=NO2)CN1C(=O)[C@@H](NC(=O)CC1CCCCC1)C(C)(C)C)C(=O)C(=O)NC1CCCCC1` [Compound 99], the pKi (on HCV NS3 protease domain; in assay [1]) was less than 6.30 in each case.

Turning to `CCC[C@H](NC(=O)[C@@H]1C[C@]2(CC(c3cccc(Cl)c3)=NO2)CN1C(=O)C(NS(=O)(=O)c1ccc(F)cc1)C(C)C)C(=O)C(=O)NC1CC1` (some centres unmarked) [Compound 100], the pKi (at HCV NS3 protease domain; in assay [1]) was less than 6.30 in each case.

Take `CCC[C@H](NC(=O)[C@@H]1C[C@@]2(CC(c3cc(C)c(OC)c(Cl)c3)=NO2)CN1C(=O)[C@@H](NC(=O)CC1CCCCC1)C(C)(C)C)C(=O)C(=O)NC1CC1` [Compound 111]: the pKi (at HCV NS3 protease domain; in assay [1]) was 6.30 to 7.00 each time.

As to `CCC[C@H](NC(=O)[C@@H]1C[C@]2(CC(c3cccc(Cl)c3)=NO2)CN1C(=O)[C@H](NC(=O)CC1CCCCC1)C(C)(C)C)C(=O)C(=O)N(CC)CC` [Compound 113], the negative logarithm of the Ki (pKi) (on HCV NS3 protease domain; in assay [1]) was less than 6.30 each time.

Regarding `C=C[C@@H]1C[C@]1(NC(=O)[C@@H]1C[C@]2(CC(c3cccc(Cl)c3)=NO2)CN1C(=O)[C@@H](NC(=O)CC1CCCCC1)C(C)(C)C)C(=O)NS(=O)(=O)NC1CC1` [Compound 115], the results for the negative-log Ki (pKi) (at HCV NS3 protease domain; in assay [1]) were less than 6.30 and 6.30 to 7.00, respectively.

Consider `CCC[C@H](NC(=O)[C@@H]1C[C@]2(CC(C(=O)c3ccccc3)=NO2)CN1C(=O)[C@@H](NC(=O)NC(C)(C)C)C(C)(C)C)C(=O)C(=O)NC1CC1` [Compound 119], for which the pKi (at HCV NS3 protease domain; in assay [1]) was 6.30 to 7.00 each time.

For the compound `CCC[C@H](NC(=O)[C@@H]1C[C@]2(CC(c3cccc(Cl)c3)=NO2)CN1C(=O)[C@@H](NC(=O)CC1CCCCC1)C(C)(C)C)C(=O)C(=O)NC(c1ccccc1)c1ccccn1` (some centres unmarked) [Compound 120], the pKi (at HCV NS3 protease domain; in assay [1]) was less than 6.30 throughout.

Take `CCC[C@H](NC(=O)[C@@H]1C[C@]2(CC(c3cccc(Cl)c3)=NO2)CN1C(=O)[C@@H](NC(=O)CC1CCOC(C)(C)C1)C(C)(C)C)C(=O)C(=O)NC1CC1` (some centres unmarked) [Compound 121]: the negative logarithm of the Ki (pKi) on HCV NS3 protease domain is 6.30 to 7.00; in assay [1] it was greater than 7.00.

With `CCC[C@H](NC(=O)[C@@H]1C[C@]2(CC(c3cccc(Cl)c3)=NO2)CN1C(=O)[C@@H](NC(=O)CC1CCCCC1)C(C)OC)C(=O)C(=O)NC1CC1` (some centres unmarked) [Compound 124], the pKi is less than 6.30 at HCV NS3 protease domain and 6.30 to 7.00 in assay [1].

Consider `CCC[C@H](NC(=O)[C@@H]1C[C@]2(CC(c3cccc(Cl)c3)=NO2)CN1C(=O)[C@@H](NC(=O)CC1CCCCC1)[C@@H](C)c1ccccc1)C(=O)C(=O)NC1CC1` [Compound 125], for which the pKi (on HCV NS3 protease domain; in assay [1]) was 6.30 to 7.00 throughout.

Regarding `CCC[C@H](NC(=O)[C@@H]1C[C@]2(CC(c3cccc(Cl)c3)=NO2)CN1C(=O)[C@@H](NC(=O)CC1CCCCC1)C(C)(C)C)C(=O)C(=O)NCc1cc(OC)cc(OC)c1` [Compound 127], the pKi (on HCV NS3 protease domain; in assay [1]) was 6.30 to 7.00 each time.

On to `C=CCOC(=O)N[C@H](C(=O)N1C[C@@]2(CC(c3cccc(Cl)c3)=NO2)C[C@H]1C(=O)N[C@]1(C(=O)NS(=O)(=O)C2CC2)C[C@H]1C=C)C(C)(C)C` [Compound 130], for which the pKi on HCV NS3 protease domain is 6.30 to 7.00; in assay [1] it was greater than 7.00.

Consider `CC(C)(C)[C@H](NC(=O)CC1CCCCC1)C(=O)N1C[C@@]2(CC(c3cncc(Cl)c3)=NO2)C[C@H]1C(=O)NC(CC1CCC1)C(=O)C(=O)NC1CC1` (some centres unmarked) [Compound 132], for which the negative-log Ki (pKi) (at HCV NS3 protease domain; in assay [1]) was 6.30 to 7.00 throughout.

With `CCC[C@H](NC(=O)[C@@H]1C[C@]2(CC(c3cccc(Cl)c3)=NO2)CN1C(=O)[C@@H](NC(=O)CC1CCCCC1)C(C)(C)C)C(=O)C(=O)N1CC(OCC)C1` [Compound 133], the pKi (on HCV NS3 protease domain; in assay [1]) was 6.30 to 7.00 in each case.

`CCC[C@H](NC(=O)[C@@H]1C[C@]2(CC(c3cc(Cl)cc4c3OCC4)=NO2)CN1C(=O)[C@@H](NC(=O)CC1CCCCC1)C(C)(C)C)C(=O)C(=O)NC1CC1` [Compound 134]: the pKi at HCV NS3 protease domain is 6.30 to 7.00; in assay [1], greater than 7.00.

`CCC[C@H](NC(=O)[C@@H]1C[C@]2(CC(c3cc(F)c(OCC)c(Cl)c3)=NO2)CN1C(=O)[C@@H](NC(=O)CC1CCCCC1)C(C)(C)C)C(=O)C(=O)NC1CC1` [Compound 136]: the negative logarithm of the Ki (pKi) (on HCV NS3 protease domain; in assay [1]) was 6.30 to 7.00 each time.

On to `CCC[C@H](NC(=O)[C@@H]1C[C@]2(CC(c3cccc(Cl)c3)=NO2)CN1C(=O)[C@@H](NC(=O)CC1CCCCC1)C(C)(C)C)C(=O)C(=O)NC(C)Cc1c[nH]c2ccc(C(C)=O)cc12` (some centres unmarked) [Compound 138], for which the negative-log Ki (pKi) (at HCV NS3 protease domain; in assay [1]) was less than 6.30 throughout.

For the compound `CCC[C@H](NC(=O)[C@@H]1C[C@]2(CC(c3cccc(Cl)c3)=NO2)CN1C(=O)[C@@H](NC(=O)CC1CCCCC1)C(C)(C)C)C(=O)C(=O)NCC1COc2ccccc2O1` (some centres unmarked) [Compound 141], the values for the negative logarithm of the Ki (pKi) (on HCV NS3 protease domain; in assay [1]) were less than 6.30 and 6.30 to 7.00, respectively.

As to `CCC[C@H](NC(=O)[C@@H]1C[C@]2(CC(c3cccc(Cl)c3)=NO2)CN1C(=O)[C@@H](NC(=O)CC1CCCCC1)C(C)(C)C)C(=O)C(=O)NCC(C)C` [Compound 143], the pKi (on HCV NS3 protease domain; in assay [1]) was 6.30 to 7.00 each time.

Turning to `CCC[C@H](NC(=O)[C@@H]1C[C@]2(CC(c3cccc(Cl)c3)=NO2)CN1C(=O)[C@@H](NC(=O)CC1CCCCC1)C(C)(C)C)C(=O)C(=O)Nc1cccc(NS(C)(=O)=O)c1` [Compound 148], the negative-log Ki (pKi) (at HCV NS3 protease domain; in assay [1]) was less than 6.30 throughout.

`CCC[C@H](NC(=O)[C@@H]1C[C@]2(CC(c3cccc(Cl)c3)=NO2)CN1C(=O)C(NC(=O)CC1C[C@@H](C)O[C@H](C)C1)C(C)(C)C)C(=O)C(=O)NC1CC1` (some centres unmarked) [Compound 153]: the pKi (on HCV NS3 protease domain; in assay [1]) was 6.30 to 7.00 throughout.

As to `CCC[C@H](NC(=O)[C@@H]1C[C@]2(CC(c3cc(Cl)ccc3OC)=NO2)CN1C(=O)[C@@H](NC(=O)CC1CCCCC1)C(C)(C)C)C(=O)C(=O)NC1CC1` [Compound 158], the negative logarithm of the Ki (pKi) (at HCV NS3 protease domain; in assay [1]) was greater than 7.00 throughout.

Regarding `C=C[C@@H]1C[C@]1(NC(=O)[C@@H]1C[C@]2(CC(c3cccc(Cl)c3)=NO2)CN1C(=O)[C@@H](NC(=O)CC1CCCCC1)C(C)(C)C)C(=O)NS(=O)(=O)C1CC1` [Compound 162], the results for the pKi (at HCV NS3 protease domain; in assay [1]) were 6.30 to 7.00 and greater than 7.00, respectively.

As to `CC(C)(C)OC(=O)N[C@H]1CCCCC/C=C\[C@@H]2C[C@@]2(C(=O)NS(=O)(=O)C2CC2)NC(=O)[C@@H]2C[C@]3(CC(C(=O)c4ccccc4)=NO3)CN2C1=O` [Compound 163], the pKi (at HCV NS3 protease domain; in assay [1]) was greater than 7.00 each time.

As for `CCC[C@H](NC(=O)[C@@H]1C[C@]2(CC(c3cc(Cl)cnc3OC)=NO2)CN1C(=O)[C@@H](NC(=O)CC1CCCCC1)C(C)(C)C)C(=O)C(=O)NC1CC1` [Compound 165], the negative logarithm of the Ki (pKi) on HCV NS3 protease domain is 6.30 to 7.00; in assay [1] it was greater than 7.00.

As for `CCC[C@H](NC(=O)[C@@H]1C[C@]2(CC(c3ccsc3)=NO2)CN1C(=O)[C@@H](NC(=O)CC1CCCCC1)C(C)(C)C)C(=O)C(=O)NC1CC1` [Compound 168], the negative-log Ki (pKi) (at HCV NS3 protease domain; in assay [1]) was 6.30 to 7.00 in each case.
